For this assay, the target named is T1, SIRT1 (Homo sapiens, UniProt Q96EB6).
T1 sequence (Q96EB6 1-747): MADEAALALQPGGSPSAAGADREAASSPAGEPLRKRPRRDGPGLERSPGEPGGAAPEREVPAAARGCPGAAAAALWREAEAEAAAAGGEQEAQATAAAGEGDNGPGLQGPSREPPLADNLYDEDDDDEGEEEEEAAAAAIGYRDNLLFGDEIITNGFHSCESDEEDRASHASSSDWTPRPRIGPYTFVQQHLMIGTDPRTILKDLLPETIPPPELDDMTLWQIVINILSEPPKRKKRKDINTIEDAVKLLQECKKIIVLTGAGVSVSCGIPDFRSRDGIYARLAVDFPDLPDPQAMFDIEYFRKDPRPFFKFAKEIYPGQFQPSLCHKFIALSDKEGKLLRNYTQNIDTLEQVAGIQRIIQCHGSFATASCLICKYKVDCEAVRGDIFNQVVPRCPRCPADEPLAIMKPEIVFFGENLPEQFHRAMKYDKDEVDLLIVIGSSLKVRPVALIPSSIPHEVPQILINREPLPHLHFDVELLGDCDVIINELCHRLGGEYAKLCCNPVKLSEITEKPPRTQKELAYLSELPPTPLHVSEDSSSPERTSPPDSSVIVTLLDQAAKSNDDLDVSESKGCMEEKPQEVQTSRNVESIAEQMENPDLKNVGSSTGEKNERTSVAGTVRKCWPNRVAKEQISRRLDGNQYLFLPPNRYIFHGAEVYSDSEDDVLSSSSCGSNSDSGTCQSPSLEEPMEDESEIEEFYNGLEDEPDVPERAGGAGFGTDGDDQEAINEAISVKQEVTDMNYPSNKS
As to the kind of experiment: Mass spectrometry based SIRT1 deacetylation (activation) assay. The assay is classed as biochemical. The note with it: 0.5 μM peptide substrate, 120 μM βNAD+, 10 nM SIRT1, 25 min at 25° C.; for Emax: 25 min, read-out: % Fold Act. (percent maximum fold activation). From the text: A mass spectrometry based assay was used to identify modulators of SIRT1 activity. The mass spectrometry based assay utilizes a peptide having 20 amino acid residues as follows: Ac-EE-K(biotin)-GQSTSSHSK(Ac)NleSTEG-K(5TMR)-EE-NH2 (SEQ ID NO: 1) wherein K(Ac) is an acetylated lysine residue and Nle is a norleucine. The peptide is labeled with the fluorophore 5TMR (excitation 540 nm/emission 580 nm) at the C-terminus. The sequence of the peptide substrate is based on p53 with several modifications. In addition, the methionine residue naturally present in the sequence was replaced with the norleucine because the methionine may be susceptible to oxidation during synthesis and purification.
The mass spectrometry assay is conducted as follows: 0.5 μM peptide substrate and 120 μM βNAD^+ is incubated with 10 nM SIRT1 for 25 minutes at 25° C. in a reaction buffer (50 mM Tris-acetate pH 8, 137 mM NaCl, 2.7 mM KCl, 1 mM MgCl2, 5 mM DTT, 0.05% BSA). Test compounds may be added to the reaction as described above. […] After the 25 minute incubation with SIRT1, 10 μL of 10% formic acid is added to stop the reaction. Reactions are sealed and frozen for later mass spec analysis. Determination of the mass of the substrate peptide allows for precise determination of the degree of acetylation (i.e. starting material) as compared to deacetylated peptide (product).
A control for inhibition of sirtuin activity is conducted by adding 1 μL of 500 mM nicotinamide as a negative control at the start of the reaction (e.g., permits determination of maximum sirtuin inhibition). A control for activation of sirtuin activity is conducted using 10 nM of sirtuin protein, with 1 μL of DMSO in place of compound, to determine the amount of deacetylation of the substrate at a given timepoint within the linear range of the assay. This timepoint is the same as that used for test compounds and, within the linear range, the endpoint represents a change in velocity.
For the above assay, SIRT1 protein was expressed and purified as follows. […] The protein was expressed by induction with 1 mM IPTG as an N-terminal His-tag fusion protein at 18° C. overnight and harvested at 30,000×g. Cells were lysed with lysozyme in lysis buffer (50 mM Tris-HCl, 2 mM Tris[2-carboxyethyl]phosphine (TCEP), 10 μM ZnCl2, 200 mM NaCl) and further treated with sonication for 10 min for complete lysis. The protein was purified over a Ni-NTA column (Amersham) and fractions containing pure protein were pooled, concentrated and run over a sizing column (Sephadex S200 26/60 global). The peak containing soluble protein was collected and run on an Ion-exchange column (MonoQ). Gradient elution (200 mM-500 mM NaCl) yielded pure protein. This protein was concentrated and dialyzed against dialysis buffer (20 mM Tris-HCl, 2 mM TCEP) overnight. The protein was aliquoted and frozen at −80° C. until further use.

The structures appear in SMILES notation.

`Cc1cnc(-c2ccccc2NC(=O)c2cc(NCCN(C)C)nc(-c3ccccc3)n2)o1` [Compound 23]: the EC1.5 result is “B (EC1.5>1 and ≦10 uM)”; the Emax is ≥ 300%.
As for `CN(C)CCNc1cc(C(=O)Nc2ccccc2-n2cc(-c3ccccc3)cn2)nc(-c2ccccc2)n1` [Compound 24], the EC1.5 result is “B (EC1.5>1 and ≦10 uM)”; the Emax lay within 150 to 300%.
In the case of `CN(C)CCNc1cc(C(=O)Nc2ccccc2-c2nnc(-c3ccccc3)s2)nc(-c2ccccc2)n1` [Compound 25], the EC1.5 result is reported as “A (EC1.5≦1 uM)” and the Emax lay within 150 to 300%.
Regarding `CN(C)CCNc1cc(C(=O)Nc2ccccc2-c2nncs2)nc(-c2ccccc2)n1` [Compound 26], the EC1.5 entry is given as “A (EC1.5≦1 uM)” and the Emax was ≥ 300%.
Consider `CN(C)CCN(C)c1cc(C(=O)Nc2ccccc2-c2nncs2)nc(-c2ccccc2)n1` [Compound 27], for which the EC1.5 entry is on record as “A (EC1.5≦1 uM)” and the Emax was ≥ 300%.
In the case of `CN(C)CCNc1cc(C(=O)Nc2ccccc2-c2ccccn2)nc(-c2ccccc2)n1` [Compound 28], the EC1.5 result was “B (EC1.5>1 and ≦10 uM)”; the Emax is ≥ 300%.
`CN(C)CCNc1cc(C(=O)Nc2ccccc2-c2ncc(C(C)(C)C)s2)nc(-c2ccccc2)c1` [Compound 29]: the EC1.5 entry is “B (EC1.5>1 and ≦10 uM)”; the Emax was ≥ 300%.
In the case of `CN(C)CCNc1cc(C(=O)Nc2ccccc2-c2ncc(-c3ccccc3)o2)nc(-c2ccccc2)c1` [Compound 30], the EC1.5 result is “A (EC1.5≦1 uM)” and the Emax is ≥ 300%.
Consider `CN(C)CCNc1cc(C(=O)Nc2ccccc2-c2ncc(C(C)(C)C)o2)nc(-c2ccccc2)c1` [Compound 31], for which the EC1.5 entry is “B (EC1.5>1 and ≦10 uM)”; the Emax is ≥ 300%.
With `CNCCN(C)c1cc(C(=O)Nc2ccccc2-c2nnc(-c3ccccc3)s2)nc(-c2ccccc2)n1` [Compound 32], the EC1.5 entry is on record as “A (EC1.5≦1 uM)” and the Emax is ≥ 300%.
In the case of `CN(C)CCNc1cc(C(=O)Nc2ccccc2-c2nnc(-c3ccccc3)s2)nc(-c2ccccc2)c1` [Compound 33], the EC1.5 result is given as “A (EC1.5≦1 uM)” and the Emax was ≥ 300%.
In the same order, the values of `CCN(CCN(C)C)c1cc(C(=O)Nc2ccccc2-c2ncc(-c3ccccc3)o2)nc(-c2ccccc2)c1` [Compound 34] are “A (EC1.5≦1 uM)” and ≥ 300%.
On the same counts, the results for `CN(C)CCN(C)c1cc(C(=O)Nc2ccccc2-c2nnc(-c3ccccc3)s2)nc(-c2ccccc2)c1` [Compound 35] are “A (EC1.5≦1 uM)” and 150 to 300%.
In the same order, the values of `CCN(CCN(C)C)c1cc(C(=O)Nc2ccccc2-c2nnc(-c3ccccc3)s2)nc(-c2ccccc2)n1` [Compound 36] are “A (EC1.5≦1 uM)” and 150 to 300%.
In the case of `CN(C)CCNc1cc(C(=O)Nc2ccccc2-c2ncc(C(C)(C)C)s2)nc(-c2ccccc2)n1` [Compound 37], the EC1.5 entry was “B (EC1.5>1 and ≦10 uM)”; the Emax lay in the range of 150 to 300%.
In the case of `CN(C)CCNc1cc(C(=O)Nc2ccccc2-c2ncc(-c3ccccc3)o2)nc(-c2ccccc2)n1` [Compound 38], the EC1.5 entry is given as “A (EC1.5≦1 uM)” and the Emax fell in the range of 150 to 300%.
Turning to `CN(C)CCNc1cc(C(=O)Nc2ccccc2-c2ncc(C(C)(C)C)o2)nc(-c2ccccc2)n1` [Compound 39], the EC1.5 result was “B (EC1.5>1 and ≦10 uM)”; the Emax was 150 to 300%.
For the compound `CNCCN(C)c1cc(C(=O)Nc2ccccc2-c2nncs2)nc(-c2ccccc2)n1` [Compound 40], the EC1.5 result is “A (EC1.5≦1 uM)” and the Emax was ≥ 300%.
Regarding `CCN(CCN(C)C)c1cc(C(=O)Nc2ccccc2-c2nncs2)nc(-c2ccccc2)n1` [Compound 41], the EC1.5 entry is recorded as “A (EC1.5≦1 uM)” and the Emax is ≥ 300%.
With `CCN(CCN(C)C)c1cc(C(=O)Nc2ccccc2-c2ncc(C(C)(C)C)s2)nc(-c2ccccc2)c1` [Compound 42], the EC1.5 entry is recorded as “A (EC1.5≦1 uM)” and the Emax lay in the range of 150 to 300%.
On the same counts, the results for `CCN(CCN(C)C)c1cc(C(=O)Nc2ccccc2-c2ncc(C(C)(C)C)o2)nc(-c2ccccc2)c1` [Compound 43] are “A (EC1.5≦1 uM)” and ≥ 300%.
In the same order, the values of `CNCCN(C)c1cc(C(=O)Nc2ccccc2-c2nnc(-c3ccccc3)s2)nc(-c2ccccc2)c1` [Compound 44] are “A (EC1.5≦1 uM)” and ≥ 300%.
Regarding `CN(C)CCN(C)c1cc(C(=O)Nc2ccccc2-c2nnc(C3CCC3)s2)nc(-c2ccccc2)n1` [Compound 45], the EC1.5 result is on record as “A (EC1.5≦1 uM)” and the Emax was in the range of 150 to 300%.
In the same order, the values of `CNCCN(C)c1cc(C(=O)Nc2ccccc2-c2nnc(C3CCC3)s2)nc(-c2ccccc2)n1` [Compound 47] are “A (EC1.5≦1 uM)” and 150 to 300%.
As to `CN(C)CCNc1cc(C(=O)Nc2ccccc2-c2nnc(C3CCC3)s2)nc(-c2ccccc2)n1` [Compound 48], the EC1.5 entry is “B (EC1.5>1 and ≦10 uM)”; the Emax lay in the range of 150 to 300%.
Regarding `CN(C)CCNc1cc(C(=O)Nc2ccccc2-c2nnc(C3CCCC3)s2)nc(-c2ccccc2)n1` [Compound 49], the EC1.5 entry was “B (EC1.5>1 and ≦10 uM)”; the Emax is 150 to 300%.
For `CCN(CCN(C)C)c1cc(C(=O)Nc2ccccc2-c2nnc(C3CCCC3)s2)nc(-c2ccccc2)n1` [Compound 50], the EC1.5 result is “B (EC1.5>1 and ≦10 uM)”; the Emax is 150 to 300%.
Consider `CCN(CCN(C)C)c1cc(C(=O)Nc2ccccc2-c2nnc(C3CCC3)s2)nc(-c2ccccc2)n1` [Compound 51], for which the EC1.5 entry is “A (EC1.5≦1 uM)” and the Emax fell in the range of 150 to 300%.
In the same order, the values of `CCc1nnc(-c2ccccc2NC(=O)c2cc(N(C)CCNC)nc(-c3ccccc3)n2)s1` [Compound 52] are “A (EC1.5≦1 uM)” and 150 to 300%.
Take `CCc1nnc(-c2ccccc2NC(=O)c2cc(NCCN(C)C)nc(-c3ccccc3)n2)s1` [Compound 53]: the EC1.5 entry was “B (EC1.5>1 and ≦10 uM)”; the Emax is 150 to 300%.
Consider `CCCc1nnc(-c2ccccc2NC(=O)c2cc(NCCN(C)C)nc(-c3ccccc3)n2)s1` [Compound 54], for which the EC1.5 entry is “B (EC1.5>1 and ≦10 uM)”; the Emax was 150 to 300%.
On to `CCc1nnc(-c2ccccc2NC(=O)c2cc(N(CC)CCN(C)C)nc(-c3ccccc3)n2)s1` [Compound 55], for which the EC1.5 result was “A (EC1.5≦1 uM)” and the Emax is 150 to 300%.
As for `CCc1nnc(-c2ccccc2NC(=O)c2cc(N(C)CCN(C)C)nc(-c3ccccc3)n2)s1` [Compound 56], the EC1.5 result was “B (EC1.5>1 and ≦10 uM)”; the Emax is 150 to 300%.
Take `CCOC(=O)c1nnc(-c2ccccc2NC(=O)c2cc(N(C)CCN(C)C)nc(-c3ccccc3)n2)s1` [Compound 57]: the EC1.5 entry is “C (EC1.5>10 uM)” and the Emax was < 150%.

The values above are taken from patent US20110039847A1, “AMIDE DERIVATIVES AS SIRTUIN MODULATORS” (Sirtris Pharmaceuticals, Inc, priority 2007, published 2011).
